Experimental data published in US20240327393A1 (SIRONAX LTD., priority 2021, published 2024).

Test system: HT-1080 (ATCC, CCL-121) cells
Experiment: HT-1080 cell viability assay with ferroptosis inducer RSL3 (Cell Titer-Glo)
Type: cell-based
Conditions: Homo sapiens; HT-1080 cells treated with RSL3; 3-fold, 10-point dilution, 1.1 μM highest concentration; Table 2; read-out: EC50 (nM), ferroptosis inhibitory activity
Summary of the method: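 EC50 was derived by sigmoidal dose-response regression of CellTiter-Glo luminescence viability, expressed relative to untreated wells. Compounds were tested in a ten-point, threefold dilution series (highest 1.1 μM) in the presence of the ferroptosis inducer RSL3. HT-1080 cells had been seeded at 6000 per well and grown overnight first.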

| SMILES | EC50 [nM] |
| --- | --- |
| Cn1ccc2cc(Nc3ccc4c(c3)n(C)c(=O)n4C)ccc21 [Compound 266, 1,3-dimethyl-5-((1-methyl-1H-indol-5-yl)amino)-1,3-dihydro-2H-benzo[d]imidazol-2-one] | 0.1 to 100 |
| CC1CCN(c2ccc(Nc3cc(Cl)c4c(c3)CN(C)C4)cc2)CC1 [Compound 267, 7-chloro-2-methyl-N-(4-(4-methylpiperidin-1-yl)phenyl)isoindolin-5-amine] | 0.1 to 100 |
| CCN(CC)c1ccc(Nc2ccc3c(c2)n(C)c(=O)n3C)cc1 [Compound 268, 5-((4-(diethylamino)phenyl)amino)-1,3-dimethyl-1,3-dihydro-2H-benzo[d]imidazol-2-one] | 0.1 to 100 |
| CC1CCN(c2ccc(Nc3ccc4ncn(C)c4c3)cc2)CC1 [Compound 270, 1-methyl-N-(4-(4-methylpiperidin-1-yl)phenyl)-1H-benzo[d]imidazol-6-amine] | 0.1 to 100 |
| Cn1c(=O)n(C)c2cc(Nc3ccc(N4CCCC4)cc3)ccc21 [Compound 271, 1,3-dimethyl-5-((4-(pyrrolidin-1-yl)phenyl)amino)-1,3-dihydro-2H-benzo[d]imidazol-2-one] | 0.1 to 100 |
| COc1cc(N2CCC(C)CC2)cc(F)c1Nc1ccc2c(c1)n(C)c(=O)n2C [Compound 272, 5-((2-fluoro-6-methoxy-4-(4-methylpiperidin-1-yl)phenyl)amino)-1,3-dimethyl-1,3-dihydro-2H-benzo[d]imidazol-2-one] | 0.1 to 100 |
| CC1CCN(c2ccc(Nc3ccc4c(c3)oc(=O)n4C)cc2)CC1 [Compound 273, 3-methyl-6-((4-(4-methylpiperidin-1-yl)phenyl)amino) benzo[d]oxazol-2(3H)-one] | 0.1 to 100 |
| CN(C)c1cc(Nc2ccc3c(c2)n(C)c(=O)n3C)cc(N(C)C)c1 [Compound 277, 5-((3,5-bis(dimethylamino)phenyl)amino)-1,3-dimethyl-1,3-dihydro-2H-benzo[d]imidazol-2-one] | 0.1 to 100 |
| Cc1cc(N2CCC(C)CC2)cc(C)c1Nc1ccc2c(c1)n(C)c(=O)n2C [Compound 278, 5-((2,6-dimethyl-4-(4-methylpiperidin-1-yl)phenyl)amino)-1,3-dimethyl-1,3-dihydro-2H-benzo[d]imidazol-2-one] | 0.1 to 100 |
| CC1CN(c2ccc(Nc3ccc4c(c3)n(C)c(=O)n4C)cc2)CC(C)O1 (centres unmarked) [Compound 279, 5-((4-(2,6-dimethylmorpholino)phenyl)amino)-1,3-dimethyl-1,3-dihydro-2H-benzo[d]imidazol-2-one] | 0.1 to 100 |
| CN(C)c1ccc(Nc2ccc3c(c2)n(C)c(=O)n3C)cc1 [Compound 284, 5-((4-(dimethylamino)phenyl)amino)-1,3-dimethyl-1,3-dihydro-2H-benzo[d]imidazol-2-one] | 0.1 to 100 |
| CC1CCN(c2ccc(Nc3ccc4c(c3)ncn4C)cc2)CC1 [Compound 285, 1-methyl-N-(4-(4-methylpiperidin-1-yl)phenyl)-1H-benzo[d]imidazol-5-amine] | 0.1 to 100 |
| CC1CCN(c2ccc(Nc3ccc4oc(=O)n(C)c4c3)cc2)CC1 [Compound 286, 3-methyl-5-((4-(4-methylpiperidin-1-yl)phenyl)amino)benzo[d]oxazol-2(3H)-one] | 0.1 to 100 |
| CN1CCOc2cc(Nc3ccc4c(c3)n(C)c(=O)n4C)ccc21 [Compound 288, 1,3-dimethyl-5-((4-methyl-3,4-dihydro-2H-benzo[b][1,4]oxazin-7-yl)amino)-1,3-dihydro-2H-benzo[d]imidazol-2-one] | 0.1 to 100 |
| CN1CCc2cc(Nc3ccc4c(c3)n(C)c(=O)n4C)ccc21 [Compound 289, 1,3-dimethyl-5-((1-methylindolin-5-yl)amino)-1,3-dihydro-2H-benzo[d]imidazol-2-one] | 0.1 to 100 |
| C#Cc1ccc(Nc2ccc3c(c2)n(C)c(=O)n3C)cc1 [Compound 290, 5-((4-ethynylphenyl)amino)-1,3-dimethyl-1,3-dihydro-2H-benzo[d]imidazol-2-one] | 0.1 to 100 |
| CN1Cc2cc(Nc3ccc(N4CCC(C(F)(F)F)CC4)cc3)ccc2C1=N [Compound 291, 1-imino-2-methyl-N-(4-(4-(trifluoromethyl)piperidin-1-yl)phenyl) isoindolin-5-amine] | 0.1 to 100 |
| Cn1c(=O)n(C)c2cc(Nc3ccc(C(=O)N4CCCC4)cc3)ccc21 [Compound 292, 1,3-dimethyl-5-((4-(pyrrolidine-1-carbonyl)phenyl)amino)-1,3-dihydro-2H-benzo[d]imidazol-2-one] | 1000 to 10000 |
| CN1C(=O)C(C)(C)c2cc(Nc3ccc(N4CCC(C(F)(F)F)CC4)cc3)ccc21 [Compound 293, 1,3,3-trimethyl-5-((4-(4-(trifluoromethyl)piperidin-1-yl)phenyl)amino)indolin-2-one] | 0.1 to 100 |
| CC1CCN(c2ccc(Nc3ccc4c(c3)CN(C)C4=N)cc2)CC1 [Compound 294, 1-imino-2-methyl-N-(4-(4-methylpiperidin-1-yl)phenyl)isoindolin-5-amine] | 0.1 to 100 |
| Cn1c(=O)n(C)c2cc(Nc3ccc(CN4CCCC4)cc3)ccc21 [Compound 295, 1,3-dimethyl-5-((4-(pyrrolidin-1-ylmethyl)phenyl)amino)-1,3-dihydro-2H-benzo[d]imidazol-2-one] | 1000 to 10000 |
| CCCCCOc1ccc(Nc2ccc3c(c2)n(C)c(=O)n3C)cc1OC [Compound 296, 5-((3-methoxy-4-(pentyloxy)phenyl)amino)-1,3-dimethyl-1,3-dihydro-2H-benzo[d]imidazol-2-one] | 0.1 to 100 |
| Cn1c(=O)n(C)c2cc(Nc3ccc(N4CCC(F)(F)CC4)cc3)ccc21 [Compound 297, 5-((4-(4,4-difluoropiperidin-1-yl)phenyl)amino)-1,3-dimethyl-1,3-dihydro-2H-benzo[d]imidazol-2-one] | 0.1 to 100 |
| Cn1c(=O)n(C)c2cc(Nc3ccc(N4CCC(F)CC4)cc3)ccc21 [Compound 299, 5-((4-(4-fluoropiperidin-1-yl)phenyl)amino)-1,3-dimethyl-1,3-dihydro-2H-benzo[d]imidazol-2-one] | 0.1 to 100 |
| Cn1nnc2cc(Nc3ccc(N4CCC(C(F)(F)F)CC4)cc3)ccc21 [Compound 300, 1-methyl-N-(4-(4-(trifluoromethyl)piperidin-1-yl)phenyl)-1H-benzo[d][1,2,3]triazol-5-amine] | 0.1 to 100 |

Second part, the molecule after the results:

| EC50 [nM] | SMILES |
| --- | --- |
| 0.1 to 100 | Cc1c(N2CCC(C)CC2)ccc(Nc2ccc3c(c2)n(C)c(=O)n3C)c1F [Compound 263, 5-((2-fluoro-3-methyl-4-(4-methylpiperidin-1-yl)phenyl)amino)-1,3-dimethyl-1,3-dihydro-2H-benzo[d]imidazol-2-one] |
| 0.1 to 100 | Cc1cc(N2CCC(C)CC2)c(F)cc1Nc1ccc2c(c1)n(C)c(=O)n2C [Compound 264, 5-((5-fluoro-2-methyl-4-(4-methylpiperidin-1-yl)phenyl)amino)-1,3-dimethyl-1,3-dihydro-2H-benzo[d]imidazol-2-one] |
| 0.1 to 100 | Cc1cc(N2CCC(C)CC2)c(Cl)cc1Nc1ccc2c(c1)n(C)c(=O)n2C [Compound 265, 5-((5-chloro-2-methyl-4-(4-methylpiperidin-1-yl)phenyl)amino)-1,3-dimethyl-1,3-dihydro-2H-benzo[d]imidazol-2-one] |
| 0.1 to 100 | COc1cc(Nc2ccc3c(c2)n(C)c(=O)n3C)ccc1N1CCC(C(F)(F)F)CC1 [Compound 269, 5-((3-methoxy-4-(4-(trifluoromethyl)piperidin-1-yl)phenyl)amino)-1,3-dimethyl-1,3-dihydro-2H-benzo[d]imidazol-2-one] |
| 0.1 to 100 | CC1CCN(c2c(F)cc(Nc3ccc4c(c3)n(C)c(=O)n4C)cc2F)CC1 [Compound 274, 5-((3,5-difluoro-4-(4-methylpiperidin-1-yl)phenyl)amino)-1,3-dimethyl-1,3-dihydro-2H-benzo[d]imidazol-2-one] |
| 0.1 to 100 | Cc1c(Nc2ccc3c(c2)n(C)c(=O)n3C)ccc(N2CCC(C)CC2)c1F [Compound 275, 5-((3-fluoro-2-methyl-4-(4-methylpiperidin-1-yl)phenyl)amino)-1,3-dimethyl-1,3-dihydro-2H-benzo[d]imidazol-2-one] |
| 0.1 to 100 | CC1CCN(c2ccc(Nc3ccc4c(c3)n(C)c(=O)n4C)cn2)CC1 [Compound 276, 1,3-dimethyl-5-((6-(4-methylpiperidin-1-yl)pyridin-3-yl)amino)-1,3-dihydro-2H-benzo[d]imidazol-2-one] |
| 0.1 to 100 | Cc1cc(N2CCC(C)CC2)ccc1Nc1ccc2c(c1)n(C)c(=O)n2C [Compound 280, 1,3-dimethyl-5-((2-methyl-4-(4-methylpiperidin-1-yl)phenyl)amino)-1,3-dihydro-2H-benzo[d]imidazol-2-one] |
| 0.1 to 100 | Cc1c(Nc2ccc3c(c2)n(C)c(=O)n3C)ccc(N2CCC(C)CC2)c1C [Compound 281, 5-((2,3-dimethyl-4-(4-methylpiperidin-1-yl)phenyl)amino)-1,3-dimethyl-1,3-dihydro-2H-benzo[d]imidazol-2-one] |
| 0.1 to 100 | Cc1cc(Nc2ccc3c(c2)n(C)c(=O)n3C)ccc1N1CCC(C)CC1 [Compound 282, 1,3-dimethyl-5-((3-methyl-4-(4-methylpiperidin-1-yl)phenyl)amino)-1,3-dihydro-2H-benzo[d]imidazol-2-one] |
| 0.1 to 100 | CC1CCN(c2ccc(Nc3ccc4c(c3)n(C)c(=O)n4C)cc2F)CC1 [Compound 283, 5-((3-fluoro-4-(4-methylpiperidin-1-yl)phenyl)amino)-1,3-dimethyl-1,3-dihydro-2H-benzo[d]imidazol-2-one] |
| 0.1 to 100 | CC1CCN(c2ccc(Nc3ccc4c(c3)n(C)c(=O)n4C)cc2)CC1 [Compound 287, 1,3-dimethyl-5-((4-(4-methylpiperidin-1-yl)phenyl)amino)-1,3-dihydro-2H-benzo[d]imidazol-2-one] |
| 0.1 to 100 | CC1CCN(c2ccc(Nc3ccc4c(c3)n(C)c(=O)n4C)cc2Cl)CC1 [Compound 298, 5-((3-chloro-4-(4-methylpiperidin-1-yl)phenyl)amino)-1,3-dimethyl-1,3-dihydro-2H-benzo[d]imidazol-2-one] |
